Assay results reported in PubChem BioAssay (NCI).
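Cultured in 96-well plates, cells were exposed to test compound for 48 hours across five concentrations. GI50 marks 50% less growth. TGI marks complete inhibition of growth.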

Legend:
Assay in all cases: DTP human tumour cell line panel, 48 h
[1] = system: 786-0 renal
[2] = system: HOP-62 NSCLC
[3] = system: MALME-3M melanoma
[4] = system: OVCAR-4 ovarian
[5] = system: SNB-19 CNS
[6] = system: TK-10 renal
[7] = system: HT29 colon
[8] = system: RPMI-8226 leukemia

SMILES	TGI [1]	TGI [2]	TGI [3]	TGI [4]	TGI [5]	TGI [6]	GI50 [1]	GI50 [2]	GI50 [7]	TGI [7]	GI50 [3]	GI50 [4]	GI50 [8]	TGI [8]	GI50 [5]	GI50 [6]
Cc1cc(=O)oc2cc(OCc3c(F)cccc3Cl)ccc12	40.2 µM	38 µM	> 100 µM	> 100 µM	> 100 µM	> 100 µM	–	–	–	–	–	–	–	–	–	–
CCN1c2ccccc2C(Cl)(c2ccc(N(C)C)cc2)c2ccccc21	22.7 µM	17.3 µM	12.4 µM	25.3 µM	19.1 µM	29.1 µM	10.7 µM	4.27 µM	2.88 µM	12.4 µM	3.33 µM	11.9 µM	1.07 µM	4.04 µM	5.44 µM	11.1 µM
O=C(Nc1ccc(Cl)cc1)c1cc(-c2ccc(Cl)cc2)c2sc(=O)[nH]c2n1	20.6 µM	8.85 µM	6.25 µM	9.98 µM	> 100 µM	–	2.64 µM	2.58 µM	2.13 µM	6.29 µM	2.31 µM	2.02 µM	1.21 µM	14.2 µM	3.64 µM	–
COc1ccc(/C=C\c2cc(OC)c(OC)c(OC)c2)cc1OC(=O)CCC(=O)O	> 100 µM	> 100 µM	–	> 100 µM	> 100 µM	> 100 µM	0.0121 µM	–	–	12.2 µM	–	–	–	> 100 µM	–	–
CC(=O)CCCCO	> 100 µM	> 100 µM	> 100 µM	> 100 µM	> 100 µM	> 100 µM	–	–	–	> 100 µM	–	–	–	> 100 µM	–	–
C=CCC(N[C@H](CO)c1ccccc1)c1cn(C(=O)OCC)c2ccccc12 (some centres not stated)	28.9 µM	27.9 µM	–	> 100 µM	66.9 µM	34 µM	15.2 µM	14.5 µM	31 µM	> 100 µM	–	37.3 µM	70.2 µM	> 100 µM	22.3 µM	16.5 µM
COc1ccc(-n2c3c(c4c(CN5CCOCC5)c(O)ccc42)CCc2ccccc2C3=O)cc1	> 100 µM	> 100 µM	> 100 µM	–	> 100 µM	> 100 µM	75.8 µM	> 100 µM	–	0.0934 µM	> 100 µM	–	24.4 µM	> 100 µM	> 100 µM	> 100 µM
c1cn2cc(-c3ccc4cn[nH]c4c3)nc(Nc3ccc(N4CCOCC4)cc3)c2n1	32 µM	16.1 µM	27.3 µM	36.2 µM	30.8 µM	37.8 µM	14.9 µM	3.81 µM	9.01 µM	37 µM	10.4 µM	7.78 µM	18.5 µM	86.6 µM	11.2 µM	17.3 µM
N#CCc1ncc(-c2ccc(C(F)(F)F)cc2)c(NC2CCCCCC2)n1	> 10 µM	> 10 µM	> 10 µM	> 10 µM	> 10 µM	> 10 µM	> 10 µM	> 10 µM	> 10 µM	> 10 µM	> 10 µM	> 10 µM	> 10 µM	> 10 µM	> 10 µM	> 10 µM
CN(C)C(=O)c1cc2cnc(Nc3ccc(-c4csc5c(=O)cc(N6CCOCC6)oc45)cc3)nc2n1C1CCCC1	4.25 µM	1.67 µM	–	> 53.7 µM	> 28.5 µM	> 100 µM	0.162 µM	0.269 µM	0.27 µM	> 100 µM	–	0.293 µM	0.142 µM	0.533 µM	0.217 µM	0.194 µM
Cc1ccc2c(O)c(O)cc(NC(C)CCCN)c2n1 (configuration not stated)	> 100 µM	> 100 µM	41.6 µM	9.88 µM	–	> 100 µM	> 100 µM	28.1 µM	7.04 µM	> 72.4 µM	18.7 µM	2.88 µM	8.89 µM	> 53.2 µM	–	> 100 µM
CSc1ccc2c3c(n(C[C@H](O)CO)c(=O)c2c1)-c1ccccc1C3=O	9.22 µM	7.27 µM	22 µM	> 100 µM	–	37.5 µM	2.52 µM	1.83 µM	1.33 µM	6.38 µM	4.3 µM	6.38 µM	1.62 µM	4.86 µM	–	4.76 µM
O=c1cc(-c2ccccc2)[nH]n1-c1nc2ccccc2[nH]1	46.6 µM	> 100 µM	> 100 µM	–	> 100 µM	> 100 µM	4.8 µM	4.96 µM	–	–	17.7 µM	–	3.59 µM	52.4 µM	4.89 µM	17.7 µM
COc1ccc(-c2ccc(-c3ccc(-c4ccc(C(=N)N)cc4)s3)s2)cc1OC	49.7 µM	17.9 µM	49.6 µM	–	16.6 µM	–	18.4 µM	3.26 µM	–	–	13 µM	–	2.86 µM	13.4 µM	3.01 µM	–
C=C(c1ccc(C(=O)N(C)c2ccccc2N)cc1)C(C)N1C(=O)[C@H]2CCCN2C(=O)c2ccccc21 (some centres not stated)	> 100 µM	> 100 µM	–	41.2 µM	> 100 µM	> 100 µM	57.6 µM	31.6 µM	16.1 µM	80.2 µM	–	2.91 µM	7.52 µM	37.7 µM	> 100 µM	45.5 µM
C#Cc1c(C(N)=O)ncn1C1OC(COP(=O)(OCc2ccc([N+](=O)[O-])o2)N(C)CCCCCl)C(O)C1O (configuration not stated)	> 100 µM	> 100 µM	–	> 100 µM	> 100 µM	> 100 µM	36.3 µM	49.3 µM	13.3 µM	> 100 µM	–	> 100 µM	0.0113 µM	> 100 µM	51.7 µM	43.1 µM
CO[C@@H]1CC(=O)C2(CC(=O)O[C@@H]2/C=C(\C)CCC=C(C)C)C[C@@H]1O (some centres not stated)	1.58 µM	2.64 µM	–	–	4.11 µM	3.35 µM	0.761 µM	1.06 µM	1.35 µM	> 50 µM	–	–	0.118 µM	0.432 µM	1.23 µM	1.26 µM
CCN(CCCl)CCCNc1c2ccccc2nc2ccc(OC)cc12	–	–	–	–	–	–	102 µM	200 µM	82.3 µM	–	754 µM	360 µM	–	–	205 µM	872 µM
